{"source": "patent US20020010113A1", "about": "“Composition” (Colgate-Palmolive Company, priority 1999, published 2002)", "key": {"[1]": {"system": "stratum corneum of pig skin", "settings": "stratum corneum immersed in 5% solution; weight at 90% relative humidity vs dry weight at 0% relative humidity", "source_text": "The epidermis of full thickness pig skin (Animal Technologies, Tyler, Tex.) was removed using a Packard Instruments dermatome, and the stratum corneum was removed via trypsin digestion. Pieces of stratum corneum were then immersed in millipore water, a 5% choline chloride (Aldrich Chemical, Milwaukee, Wis.), or a 5% glycerin solution. Using a dynamic vapour sorption meter (Surface Measurement Systems, Coopersburg, Pa.), the skin was equilibrated under a 0% relative humidity environment until the change in weight varied no more than 0.005% per min. This weight was recorded as the dry weight. The relative humidity was then increased to 90%. The skin was equilibrated at this humidity until the change in weight varied no more than 0.005% per min. This weight was, likewise, recorded and the % water uptake was calculated."}, "[2]": {"system": "Full thickness Yucatan swine skin", "settings": "(3H3C)-choline in 25% shower gel solution (100 mg choline chloride per 20 ml); two 5 minute applications, each rinsed with 10 ml distilled water", "experimental": "The radiolabelling experiment described in this example was carried out to quantify the amount of choline that could adhere to the skin following a water rinse. Full thickness Yucatan swine skin (Charles River, Inc., Wilmington, Mass.) was mounted (dermis side down) onto a special sample holder, the dimensions of which were previously described in U.S. Pat. No. 4,836,014. This sample holder exposed approximately 4.91 cm^2 of the skin. A 1 ml aliquot of (^3H3C)-choline (American Radiolabel Chemicals, Inc., St. Louis, Mo.) containing shower gel was next applied to the surface of the exposed skin. […] After five minutes had elapsed, the shower gel was removed, and the surface of the skin was rinsed with 10 ml of distilled water. A second 1 ml aliquot of the (^3H3C)-choline containing shower gel was then reapplied to the skin. Again, after a 5 minute exposure time, the shower gel was removed and the skin rinsed with 10 ml of distilled water. The skin sample was then removed from its sample holder and air-dried for 10 minutes. Four 4 mm diameter punches were collected from each piece of treated skin, oxidized in a Packard oxidizer, and counted in a Packard 2000 Tri-carb liquid scintillation analyzer (Packard Instruments Inc., Downers Grove, Ill.). To obtain the specific activity, 0.1 ml of the (^3H3C)-choline containing shower gel was counted in the Packard 2000 analyzer."}}, "data": [{"compound": "OCC(O)CO", "note": "[5% Glycerin, glycerin, reference compound]", "values": [{"measurement": "% Water Uptake", "setting": "[1]", "value": "75 ± 6", "unit": "%"}]}, {"compound": "C[N+](C)(C)CCO.[Cl-]", "note": "[5% Choline, choline chloride]", "values": [{"measurement": "% Water Uptake", "setting": "[1]", "value": "89 ± 14", "unit": "%"}, {"measurement": "amount of choline remaining on the skin following a water rinse", "setting": "[2]", "value": 33, "unit": "μg/cm^2"}]}]}
